Molecular target: Src kinase (Homo sapiens, UniProt P12931)
Assay: ADP-Glo kinase assay, […] Src, […] ATP, peptide substrate

Chain of Src kinase (P12931 2-536): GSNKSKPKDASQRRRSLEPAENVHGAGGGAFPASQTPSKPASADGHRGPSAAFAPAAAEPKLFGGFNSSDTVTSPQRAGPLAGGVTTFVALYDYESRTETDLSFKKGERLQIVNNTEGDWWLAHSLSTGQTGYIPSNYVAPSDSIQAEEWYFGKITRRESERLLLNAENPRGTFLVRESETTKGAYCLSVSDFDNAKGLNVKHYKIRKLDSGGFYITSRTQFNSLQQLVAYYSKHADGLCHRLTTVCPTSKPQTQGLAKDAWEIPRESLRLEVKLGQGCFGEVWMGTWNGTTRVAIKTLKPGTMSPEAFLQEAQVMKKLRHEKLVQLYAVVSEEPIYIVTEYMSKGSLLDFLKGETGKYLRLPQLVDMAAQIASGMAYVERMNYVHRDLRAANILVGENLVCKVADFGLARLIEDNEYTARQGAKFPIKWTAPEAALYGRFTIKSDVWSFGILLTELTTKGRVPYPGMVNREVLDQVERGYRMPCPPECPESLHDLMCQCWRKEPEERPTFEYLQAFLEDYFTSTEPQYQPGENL

IC50: 323 nM
SMILES: Cc1nc(Nc2ncc(C(=O)Nc3cc(NC(=O)c4cccc(C(F)(F)F)c4)ccc3C)s2)cc(N2CCN(CCO)CC2)n1 [UM-164]

Reference: publication PMC13397736, “LEP-AD: language embedding of proteins and attention to drugs predicts drug-target interactions” (Journal of Cheminformatics, 2026)
